Data from patent US10646460B2, “Pharmaceutical composition for inhibiting growth of cancer stem cells, containing aldehyde inhibitor and biguanide-based compound” (NATIONAL CANCER CENTER, priority 2015, dated 2020).

How the values were obtained:
U87 cells (GBM cells) = test: MTT assay of cell viability following treatment with gossypol; format: cell-based; conditions: 0.5, 1, 5, 10 and 50 μM gossypol, 72 hours, FIG. 1
Procedure: U87 cells (GBM cells) were treated with 0.5, 1, 5, 10 and 50 μM of gossypol for 72 hours (FIG. 1).

U87 neurosphere cells = test: Analysis of formation of neurospheres; format: cell-based; conditions: 1 μM gossypol, 10 μM phenformin or mixture, 3 weeks, FIG. 3
Procedure: U87 cells were cultured in DMEM/F-12 medium containing 2 wt % 1×B27, 0.02 wt % bFGF (20 ng/ml), 0.02 wt % EGF (20 ng/ml) and 50 U/ml penicillin-[…] (100×, Gibco, Invitrogen Korea, Seoul, South Korea) to form tumor spheres. Next, the cells were seeded onto a 96-well plate at a density of 10 cells/well and treated with each of 1 μM gossypol, 10 μM phenformin and a mixture of 1 μM gossypol and 10 μM phenformin. Then, the cells were cultured at 37° C. for 3 weeks.
In FIG. 4, the percent change in the radius of the neurospheres is expressed as the percentage of the average radius of the neurospheres after each treatment relative to the average radius of the neurospheres seeded onto the 96-well plate, and in FIG. 5, the degree of neurosphere formation is expressed as the percentage of the number of the neurosphere cells after each treatment relative to the number of the neurosphere cells seeded onto the 96-well plate.

U87-luc cells = test: Orthotopic xenograft model (U87-luc cells transplanted into the cerebrum), bioluminescence and survival; format: in vivo, male athymic nude mice; conditions: 5 weeks after transplantation; oral gossypol 40 mg/kg and/or phenformin 100 mg/kg each day, FIG. 7
Procedure: Gossypol and phenformin to be used in an animal study were dissolved in DMSO and PBS, respectively. A composition for co-administration of gossypol and phenformin was dissolved in PBS containing 10 wt % DMSO and 10 wt % cremophor.
For preparation of orthotopic xenograft models, 4-8-week-old male athymic nude mice (Central Lab., Korea) were used. For stabilization, the mice were maintained in a sterilized environment for at least one week before use in the experiment while they were fed with a sufficient diet. […] First, the mice were anesthetized by intraperitoneal injection of 30 mg/kg of Zoletil and 10 mg/kg of Xylazine, and 2×10^5 U87-luc cells were transplanted into the right frontal lobe of the cerebrum to a depth of 4.5 mm by use of a Hamilton syringe. The U87-luci cells were injected into five mice of the same group at the same time at a rate of 0.5 l/minute by use of a micro-infusion syringe pump. Thereafter, the mice were administered orally with gossypol (40 mg/kg) and/or phenformin (100 mg/kg) each day.
An increase or decrease in the body weight was checked each day, and when a mouse whose body weight decreased by 15 wt % compared to the body weight before the start of the experiment, the mouse was euthanized according to the approved protocol. […]

Structure (SMILES) | growth of the cells (MTT assay) (U87 cells (GBM cells)) | size of neurosphere cells / presence in cell photographs (U87 neurosphere cells) | degree of occurrence of brain cancer (bioluminescence signal) (U87-luc cells)
Cc1cc2c(C(C)C)c(O)c(O)c(C=O)c2c(O)c1-c1c(C)cc2c(C(C)C)c(O)c(O)c(C=O)c2c1O [gossypol] | growth of the cells was inhibited | the size of the neurosphere cells decreased | fluorescence was observed
NC(N)=N/C(N)=N/CCc1ccccc1 [phenformin] |  | the size of the neurosphere cells decreased | fluorescence was observed
